Data on 13 compounds can be found in patent US20220281866A1, “5,8-DISUBSTITUTED-[1,2,4]TRIAZOLO[1,5-A]PYRIDINYL AND 5,8-DISUBSTITUTED-IMIDAZO[1,2-A]PYRIDINE DERIVATIVES USEFUL AS INHIBITORS OF ENTEROPEPTIDASE” (Janssen Pharmaceutica NV, priority 2019, published 2022).

One experiment concerns the target T1, Bovine trypsin (Bos taurus, UniProt P00760).
T1 construct: purchased Sigma-Aldrich T1426
T1 sequence (P00760 24-246): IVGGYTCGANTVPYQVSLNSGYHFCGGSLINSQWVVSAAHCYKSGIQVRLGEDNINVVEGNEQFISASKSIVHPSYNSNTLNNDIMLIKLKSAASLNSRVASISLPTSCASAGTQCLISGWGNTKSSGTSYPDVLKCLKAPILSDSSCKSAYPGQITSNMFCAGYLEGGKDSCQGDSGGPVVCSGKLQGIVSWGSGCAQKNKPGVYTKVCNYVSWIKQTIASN
Description: Biochemical Assay of Trypsin (T), H-D-CHA-AR-AMC substrate. To be noted: 15 μM substrate, 0.025 nM Trypsin; for inhibition at 0.1 µM: compound 0.1 μM; for inhibition at 1 µM: compound 1 μM; for inhibition at 10 µM: compound 10 μM. How it is done: Bovine trypsin was purchased from Sigma-Aldrich (Cat No. T1426), and 7-amino-4-methylcoumarin (AMC) conjugated peptide H-D-cyclohexylalanine (D-CHA)-AR-AMC was used as the substrate in the assay. The protease activity of trypsin was followed by measuring AMC production by the emission fluorescence intensity of AMC at 460 nm with the excitation at 375 nm, in the same assay buffer as used in the EP assay. The enzyme kinetic characterization studies yielded an average of KM to be 3.9±0.5 μM and the apparent turnover number kcat^app of 33.8±0.4 s^−1 (N=2).
Studies of compound inhibition against T were carried out under the conditions of 15 μM substrate and 0.025 nM Trypsin. Reaction progress curves were collected by reading the FI at 375/460 nm continuously for 1 hour at an interval of 1 minute. Similar to the procedure for Enteropeptidase described above, compounds of formula (I) were screened against Trypsin at 4 different concentrations to obtain the percent of inhibition at 10 μM, 1 μM, 0.1 μM and 0.01 μM, and accurate potencies of selected compounds against Trypsin were derived from detailed 12-point dose-dependence studies for time-dependent inhibitors.
(§1) Representative compounds of the present invention were tested according to the procedures as described in Biological Example 1 and Biological Example 2 above, with results as listed in Table 2 and Table 3, below. Results are reported as the %-inhibition (% Inh) or Kinact/KI value. Variability for the functional assay was typically within 20%. For the column headed Kinact/KI the listed measurement is the result of duplicate dilutions.

Experiment [1] concerns the target T2, Recombinant full-length human EP (Enteropeptidase) (Homo sapiens, UniProt P98073).
T2 construct: Recombinant full-length human EP (PeproTech, Cat #450-48C); purchased PeproTech 450-48C
Description: In vitro inhibition potencies against Enteropeptidase (EP), fluorescent peptide GDDDDK-naphthylamine substrate. Type of experiment: biochemical. To be noted: 300 μM substrate, 1.25 nM EP; for kinact/KI: 12-point dose-dependence, time-dependent inhibition, duplicate dilutions, read-out: kinact/KI^App; for inhibition at 0.1 µM: compound 0.1 μM; for inhibition at 1 µM: compound 1 μM; for inhibition at 10 µM: compound 10 μM. On the procedure: In vitro inhibition potencies against Enteropeptidase (EP) Recombinant full-length human EP (PeproTech, Cat #450-48C) was used in this biochemical assay, with a quenched fluorescent labeled peptide GDDDDK-naphthylamine (NA) (Sigma, Cat #G5261) as the substrate in a buffer of 50 mM Tris-HCl pH 7.4, 200 mM NaCl and 0.01% Triton X-100. The enzyme activity was measured by following the formation of the cleavage product […](NA) by monitoring the fluorescence intensity (FI) at excitation/emission wavelengths of 340/410 nm. The steady-state kinetic characterization studies yielded an average of KM to be 412±22 μM and the apparent turnover number kcat^app of 11.8±0.4 s^−1 (N=2).
Compound inhibition studies were carried out under the conditions of 300 μM substrate and 1.25 nM EP. Reaction progress curves were collected by reading the FI at 340/410 nm continuously for 1 hour at an interval of 1 minute.
To screen compounds of formula (I), inhibition was studied at 4 different compound concentrations of 10 μM, 1 μM, 0.1 μM and 0.01 μM. Initial velocity of the reaction was determined, and percent of inhibition was calculated by comparing to the reaction in the absence of compound.
Accurate measurements of the inhibition potencies of selected compounds were studied in a 12-point dose-dependence fashion. […] Compound potency was measured by determining the inactivation rate constant (kobs) following the reaction change from the initial velocity vi to the steady-state velocity vs at various compound concentrations. The inactivation rate constants (kobs), were derived by fitting the reaction progress curves to eq. 1.
where YT is the detection signal of the reaction at time t, vi and vs are the initial and the steady-state velocities of the reaction, t is the reaction time. Y0 is the background signal (when t=0).
Compound binding mechanism was shown by plotting kobs˜[compound]. Hyperbolic fitting to eq. 2
conforms to a two-step binding mechanism as shown in Scheme BIO-1.
The plateau of the curve is the forward step rate constant of the isomerization step k3, KI^app is the inhibitor concentration that leads to half-maximal rate of inhibition of enzyme under the assay conditions. Compound inhibition potency was reported by the value of k3/KI^app.
A linear dependence of eq.3
indicates a one-step binding mechanism as shown in Scheme BIO-2
Slope of the linear fit gives the second-order rate constant of the compound binding k1, which is used to represent the compound inhibition potency.
as §1

By inhibition is commonly meant the change of the read-out against control, counted positive when it falls.

T2 sequence (P98073 whole entry): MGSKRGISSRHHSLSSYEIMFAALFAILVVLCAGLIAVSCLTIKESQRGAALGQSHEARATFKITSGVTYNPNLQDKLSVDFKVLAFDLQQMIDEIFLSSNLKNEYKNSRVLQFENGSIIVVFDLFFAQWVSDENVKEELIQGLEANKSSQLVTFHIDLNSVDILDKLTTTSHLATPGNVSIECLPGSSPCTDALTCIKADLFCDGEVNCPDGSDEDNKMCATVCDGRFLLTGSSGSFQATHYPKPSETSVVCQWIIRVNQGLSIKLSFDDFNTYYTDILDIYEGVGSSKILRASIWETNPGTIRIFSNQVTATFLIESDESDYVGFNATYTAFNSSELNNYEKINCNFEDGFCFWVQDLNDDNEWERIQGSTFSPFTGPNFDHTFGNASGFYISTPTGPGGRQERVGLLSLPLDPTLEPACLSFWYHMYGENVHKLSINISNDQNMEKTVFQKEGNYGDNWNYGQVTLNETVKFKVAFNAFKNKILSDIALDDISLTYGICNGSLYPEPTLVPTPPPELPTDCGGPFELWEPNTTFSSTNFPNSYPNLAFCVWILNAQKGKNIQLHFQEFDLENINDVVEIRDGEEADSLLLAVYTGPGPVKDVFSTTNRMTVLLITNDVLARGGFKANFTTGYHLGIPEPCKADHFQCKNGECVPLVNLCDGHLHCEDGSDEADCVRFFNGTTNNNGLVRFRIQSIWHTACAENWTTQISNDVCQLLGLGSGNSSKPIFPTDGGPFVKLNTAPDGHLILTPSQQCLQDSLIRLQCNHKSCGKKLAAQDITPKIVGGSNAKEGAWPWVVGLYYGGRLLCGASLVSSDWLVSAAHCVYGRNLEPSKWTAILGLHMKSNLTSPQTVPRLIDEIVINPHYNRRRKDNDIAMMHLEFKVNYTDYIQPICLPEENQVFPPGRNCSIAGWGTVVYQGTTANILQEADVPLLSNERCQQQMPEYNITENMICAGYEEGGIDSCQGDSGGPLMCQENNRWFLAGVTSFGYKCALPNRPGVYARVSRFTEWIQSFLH

In the case of `N=C(N)Nc1ccc(C(=O)Oc2ccc(CCC(=O)O)n3ccnc23)cc1` [Compound 2, 3-(8-(4-guanidinobenzoyloxy)imidazo[1,2-a]pyridin-5-yl)propanoic acid], on Bovine trypsin, the inhibition at 0.1 µM turned out to be 61%, the inhibition at 1 µM worked out at 100% and the inhibition at 10 µM worked out at 100%. For the same compound, in experiment [1], the kinact/KI was 24400 M⁻¹ s⁻¹, the inhibition at 0.1 µM was 27.6%, the inhibition at 1 µM was found to be 95.1% and the inhibition at 10 µM turned out to be 100%.
Regarding `N=C(N)Nc1ccc(C(=O)Oc2cc(CCC(=O)O)cn3ncnc23)cc1` [Compound 25, 3-(8-(4-guanidinobenzoyloxy)-[1,2,4]triazolo[1,5-a]pyridin-6-yl)propanoic acid], at Bovine trypsin, the inhibition at 0.1 µM was determined as 99.2%, the inhibition at 1 µM worked out at 100% and the inhibition at 10 µM was found to be 100%. In experiment [1], the inhibition at 0.1 µM was determined as 45.2%, the inhibition at 1 µM was 102% and the inhibition at 10 µM was 101%.
For the compound `N=C(N)Nc1ccc(C(=O)Oc2ccc(CC(=O)NC(CC(=O)O)C(=O)O)n3ncnc23)cc1` (stereo not drawn) [Compound 5, 2-(2-(8-(4-guanidinobenzoyloxy)-[1,2,4]triazolo[1,5-a]pyridin-5-yl)acetamido)succinic acid], on Bovine trypsin, the inhibition at 0.1 µM came out at 98.3%, the inhibition at 1 µM stood at 100% and the inhibition at 10 µM came to 100%. Further, in experiment [1], the inhibition at 0.1 µM was 48.3%, the inhibition at 1 µM is 101% and the inhibition at 10 µM was 100%.
As for `N=C(N)Nc1ccc(C(=O)Oc2ccc(CC(=O)NC(CC(=O)O)C(=O)O)n3ccnc23)cc1` (stereo not drawn) [Compound 27, 2-(2-(8-(4-guanidinobenzoyloxy)imidazo[1,2-a]pyridin-5-yl)acetamido)succinic acid], on Bovine trypsin, the inhibition at 0.1 µM turned out to be 99.3%, the inhibition at 1 µM worked out at 100% and the inhibition at 10 µM turned out to be 100%. Also, in experiment [1], the inhibition at 0.1 µM worked out at 81.2%, the inhibition at 1 µM amounted to 100% and the inhibition at 10 µM amounted to 100%.
With `N=C(N)Nc1ccc(C(=O)Oc2ccc(CC(=O)O)n3ncnc23)s1` [Compound 10, 2-(8-(5-guanidinothiophene-2-carbonyloxy)-[1,2,4]triazolo[1,5-a]pyridin-5-yl)acetic acid], on Bovine trypsin, the inhibition at 0.1 µM was found to be 93.8%, the inhibition at 1 µM is 99.9% and the inhibition at 10 µM was found to be 99.8%. Also, in experiment [1], the inhibition at 0.1 µM was 82%, the inhibition at 1 µM was determined as 100% and the inhibition at 10 µM turned out to be 100%.
Consider `C#CCOCCOCC#Cc1cc(NC(=N)N)ccc1C(=O)Oc1ccc(CC(=O)O)n2ncnc12` [Compound 42, 2-(8-((4-guanidino-2-(3-(2-(prop-2-yn-1-yloxy)ethoxy)prop-1-yn-1-yl)benzoyl)oxy)-[1,2,4]triazolo[1,5-a]pyridin-5-yl)acetic acid], for which, on Bovine trypsin (12-point dose-dependence, time-dependent inhibition, duplicate dilutions, read-out: Kinact/KI^App), the kinact/KI worked out at 59400 M⁻¹ s⁻¹. For the same compound, at Bovine trypsin, the inhibition at 0.1 µM is 52.9%, the inhibition at 1 µM worked out at 99.6% and the inhibition at 10 µM turned out to be 100%. In experiment [1], the kinact/KI is 52800 M⁻¹ s⁻¹, the inhibition at 0.1 µM is 62.3%, the inhibition at 1 µM amounted to 98.5% and the inhibition at 10 µM was determined as 99.8%.
On to `CNC(=N)Nc1ccc(C(=O)Oc2ccc(CC(=O)O)n3ncnc23)cc1` [Compound 34, 2-(8-(4-(3-methylguanidino)benzoyloxy)-[1,2,4]triazolo[1,5-a]pyridin-5-yl)acetic acid], for which, on Bovine trypsin, the inhibition at 0.1 µM is 9.6%, the inhibition at 1 µM is 57.1% and the inhibition at 10 µM came to 97.7%. Also, in experiment [1], the inhibition at 0.1 µM was found to be 15.3%, the inhibition at 1 µM worked out at 80.1% and the inhibition at 10 µM was determined as 97.9%.
In the case of `CC(=N)Nc1ccc(C(=O)Oc2ccc(CC(=O)O)n3ncnc23)cc1` [Compound 37, 2-(8-(4-acetimidamidobenzoyloxy)-[1,2,4]triazolo[1,5-a]pyridin-5-yl)acetic acid], on Bovine trypsin, the inhibition at 0.1 µM was determined as 11.5%, the inhibition at 1 µM is 68% and the inhibition at 10 µM is 99.7%. Besides, in experiment [1], the inhibition at 0.1 µM came to 47.8%, the inhibition at 1 µM worked out at 99.6% and the inhibition at 10 µM was 100%.
For the compound `N=C(N)Nc1ccc(C(=O)Oc2ccc(CC(=O)O)n3ncnc23)cc1O` [Compound 23, 2-(8-(4-guanidino-3-hydroxybenzoyloxy)-[1,2,4]triazolo[1,5-a]pyridin-5-yl)acetic acid], at Bovine trypsin, the inhibition at 0.1 µM is 12.4%, the inhibition at 1 µM amounted to 73.1% and the inhibition at 10 µM came out at 100%. Also, in experiment [1], the inhibition at 0.1 µM came to 34.3%, the inhibition at 1 µM is 92.1% and the inhibition at 10 µM was found to be 101%.
On to `CNC(=N)c1ccc(C(=O)Oc2ccc(CC(=O)O)n3ncnc23)cc1` [Compound 33, 2-(8-(4-(N-methylcarbamimidoyl)benzoyloxy)-[1,2,4]triazolo[1,5-a]pyridin-5-yl)acetic acid], for which, on Bovine trypsin, the inhibition at 0.1 µM came to 5.7%, the inhibition at 1 µM came out at 8.7% and the inhibition at 10 µM is 66.5%. Further, in experiment [1], the inhibition at 0.1 µM was -0.8%, the inhibition at 1 µM amounted to 11.3% and the inhibition at 10 µM worked out at 52.3%.
For `Cc1cc(C(=O)Oc2ccc(CC(=O)O)n3ncnc23)ccc1NC(=N)N` [Compound 15, 2-(8-(4-guanidino-3-methylbenzoyloxy)-[1,2,4]triazolo[1,5-a]pyridin-5-yl)acetic acid], at Bovine trypsin, the inhibition at 0.1 µM was -0.1%, the inhibition at 1 µM is 8.4% and the inhibition at 10 µM worked out at 35.5%. In addition, in experiment [1], the inhibition at 0.1 µM is 1.3%, the inhibition at 1 µM was 6.3% and the inhibition at 10 µM was 36.7%.
As for `CN(C(=N)N)c1ccc(C(=O)Oc2ccc(CC(=O)O)n3ncnc23)cc1` [Compound 35, 2-(8-(4-(1-methylguanidino)benzoyloxy)-[1,2,4]triazolo[1,5-a]pyridin-5-yl)acetic acid], at Bovine trypsin, the inhibition at 0.1 µM was determined as 31.4%, the inhibition at 1 µM turned out to be 89.2% and the inhibition at 10 µM came out at 98.9%. Also, in experiment [1], the inhibition at 0.1 µM is 40.5%, the inhibition at 1 µM worked out at 93.8% and the inhibition at 10 µM turned out to be 99.3%.
As for `N=C1NCCN1c1ccc(C(=O)Oc2ccc(CC(=O)O)n3ncnc23)cc1` [Compound 32, 2-(8-(4-(2-iminoimidazolidin-1-yl)benzoyloxy)-[1,2,4]triazolo[1,5-a]pyridin-5-yl)acetic acid], on Bovine trypsin, the inhibition at 0.1 µM is 10.9%, the inhibition at 1 µM is 58.3% and the inhibition at 10 µM amounted to 93%. Also, in experiment [1], the inhibition at 0.1 µM was 10.5%, the inhibition at 1 µM is 57.9% and the inhibition at 10 µM was 93.2%.
